Results published in ChEMBL document CHEMBL5352432, “Ad-hoc modifications of cyclic mimetics of SOCS1 protein: Structural and functional insights” (Eur J Med Chem, 2022).
Active and inactive are the calls of the source. The rule behind the calls is not given here. Positions of bridges follow the written chain, without caps; N, C: chain ends. Non-standard residues stand in square brackets, D forms with d. Residues, ends and D or L forms follow the SMILES beside them. *: point of attachment. 1Nal = N[C@@H](Cc1cccc2ccccc12)C(=O)O; hArg = N=C(N)NCCCC[C@H](N)C(=O)O; Cit = NC(=O)NCCC[C@H](N)C(=O)O; Orn = NCCC[C@H](N)C(=O)O; Ac5c = NC1(C(=O)O)CCCC1; Dap = NC[C@H](N)C(=O)O; Acm = CC(=O)NC*

What was measured:
[1] = biological target: Tyrosine-protein kinase JAK2 (Homo sapiens, UniProt O60674); test: Binding affinity to His-tagged JAK2 catalytic domain (826 to 1132 residues) (unknown origin) assessed as dissociation constant incubated for 30 mins by MST analysis
[2] = Stability of the compound in fetal bovine serum assessed as drug degradation incubated for 17 hrs by RP-HPLC analysis; type: ADME, cell-free, Bos taurus; details: cattle, read-out: Drug degradation
[3] = Stability of the compound in fetal bovine serum incubated for 42 hrs by RP-HPLC analysis; type: ADME, cell-free, Bos taurus; details: cattle
[4] = Proteolytic stability of the compound in fetal bovine serum assessed as drug degradation incubated for 42 hrs by RP-HPLC analysis; type: ADME, cell-free, Bos taurus; details: cattle
[5] = Stability of the compound in fetal bovine serum assessed as drug degradation incubated for 42 hrs by RP-HPLC analysis; type: ADME, cell-free, Bos taurus; details: cattle, read-out: Drug degradation
[6] = Proteolytic stability of the compound in fetal bovine serum assessed as drug degradation incubated for 17 hrs by RP-HPLC analysis; type: ADME, cell-free, Bos taurus; details: cattle, read-out: Drug degradation

Chain of Tyrosine-protein kinase JAK2 (O60674 whole entry, the tested form may be a part): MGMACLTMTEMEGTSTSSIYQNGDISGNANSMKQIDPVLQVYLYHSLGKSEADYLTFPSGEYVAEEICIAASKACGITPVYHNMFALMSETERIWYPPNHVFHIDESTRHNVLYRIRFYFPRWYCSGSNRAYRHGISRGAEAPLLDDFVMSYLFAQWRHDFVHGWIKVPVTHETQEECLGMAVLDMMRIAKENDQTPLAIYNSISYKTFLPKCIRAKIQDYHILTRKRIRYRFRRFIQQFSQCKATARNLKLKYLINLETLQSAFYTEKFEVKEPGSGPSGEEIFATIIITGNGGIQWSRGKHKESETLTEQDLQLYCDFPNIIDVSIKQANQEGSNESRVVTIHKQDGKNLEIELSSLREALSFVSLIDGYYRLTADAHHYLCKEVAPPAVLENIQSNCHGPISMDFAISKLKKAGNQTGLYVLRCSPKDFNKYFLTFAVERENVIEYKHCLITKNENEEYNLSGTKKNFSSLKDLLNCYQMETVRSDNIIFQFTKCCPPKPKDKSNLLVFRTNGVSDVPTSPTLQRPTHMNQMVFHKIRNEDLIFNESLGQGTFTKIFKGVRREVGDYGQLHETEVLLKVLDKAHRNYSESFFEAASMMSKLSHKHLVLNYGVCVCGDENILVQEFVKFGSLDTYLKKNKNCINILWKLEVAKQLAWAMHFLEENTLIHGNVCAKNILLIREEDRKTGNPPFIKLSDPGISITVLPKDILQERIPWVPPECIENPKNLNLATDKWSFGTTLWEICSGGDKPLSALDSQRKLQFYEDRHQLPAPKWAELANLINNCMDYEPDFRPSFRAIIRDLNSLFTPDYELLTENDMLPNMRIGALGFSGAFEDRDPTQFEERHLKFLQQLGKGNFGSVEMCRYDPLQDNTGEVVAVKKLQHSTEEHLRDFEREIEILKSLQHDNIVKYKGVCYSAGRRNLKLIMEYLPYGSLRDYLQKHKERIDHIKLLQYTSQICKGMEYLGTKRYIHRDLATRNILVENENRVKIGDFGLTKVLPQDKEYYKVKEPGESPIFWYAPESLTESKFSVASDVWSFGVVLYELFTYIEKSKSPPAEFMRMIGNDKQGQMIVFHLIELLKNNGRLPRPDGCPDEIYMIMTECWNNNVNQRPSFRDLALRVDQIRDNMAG

SMILES: CC(=O)NCSC[C@@H]1NC(=O)[C@H]([C@@H](C)O)NC(=O)[C@@H](NC(C)=O)CC(=O)NCCCC[C@@H](C(=O)N[C@@H](Cc2c[nH]cn2)C(=O)O)NC(=O)[C@H](CCCNC(=N)N)NC(=O)[C@H](Cc2cccc3ccccc23)NC(=O)[C@H]([C@@H](C)O)NC(=O)[C@H](CCC(N)=O)NC(=O)[C@H](CCCNC(=N)N)NC1=O (Ac-DTC(Acm)RQT[1Nal]RKH-OH; lactam 1-9)
- Kd [1]: 36 µM
- metabolised at 17 h [2]: 30%

SMILES: CC(=O)NCSC[C@@H]1NC(=O)[C@H]([C@@H](C)O)NC(=O)[C@@H](NC(C)=O)CC(=O)NC[C@@H](C(=O)N[C@@H](Cc2c[nH]cn2)C(=O)O)NC(=O)[C@H](CCCNC(=N)N)NC(=O)[C@H](Cc2cccc3ccccc23)NC(=O)[C@H]([C@@H](C)O)NC(=O)[C@H](CCC(N)=O)NC(=O)[C@H](CCCNC(=N)N)NC1=O (Ac-DTC(Acm)RQT[1Nal]R[Dap]H-OH; lactam 1-9)
- Activity [1]: inactive
- Stability [3]: Unstable

SMILES: CC(=O)NCSC[C@@H]1NC(=O)[C@H]([C@@H](C)O)NC(=O)[C@@H](NC(C)=O)CC(=O)NCCCC[C@@H](C(=O)N[C@@H](Cc2c[nH]cn2)C(=O)O)NC(=O)[C@H](CCCNC(=N)N)NC(=O)[C@H](Cc2cccc3ccccc23)NC(=O)C2(CCCC2)NC(=O)[C@H](CCC(N)=O)NC(=O)[C@H](CCCNC(=N)N)NC1=O (Ac-DTC(Acm)RQ[Ac5c][1Nal]RKH-OH; lactam 1-9)
- Kd [1]: 120 µM
- Stability [4]: Stable

SMILES: CC(=O)NCSC[C@@H]1NC(=O)[C@H]([C@@H](C)O)NC(=O)[C@@H](NC(C)=O)CC(=O)NCCCC[C@@H](C(=O)N[C@@H](Cc2c[nH]cn2)C(=O)O)NC(=O)[C@H](CCCNC(=N)N)NC(=O)[C@H](Cc2cccc3ccccc23)NC(=O)[C@H]([C@@H](C)O)NC(=O)[C@H](CCCNC(N)=O)NC(=O)[C@H](CCCNC(=N)N)NC1=O (Ac-DTC(Acm)R[Cit]T[1Nal]RKH-OH; lactam 1-9)
- Kd [1]: 36 µM
- metabolised at 17 h [2]: 50%

SMILES: CC(=O)NCSC[C@@H]1NC(=O)[C@H]([C@@H](C)O)NC(=O)[C@@H](NC(C)=O)CC(=O)NCCCC[C@@H](C(=O)N[C@@H](Cc2c[nH]cn2)C(=O)O)NC(=O)[C@H](CCCCNC(=N)N)NC(=O)[C@H](Cc2cccc3ccccc23)NC(=O)[C@H]([C@@H](C)O)NC(=O)[C@H](CCCNC(N)=O)NC(=O)[C@H](CCCNC(=N)N)NC1=O (Ac-DTC(Acm)R[Cit]T[1Nal][hArg]KH-OH; lactam 1-9)
- Kd [1]: 31 µM
- Stability [3]: Stable

SMILES: CC(=O)NCSC[C@@H]1NC(=O)[C@H]([C@@H](C)O)NC(=O)[C@@H](NC(C)=O)CC(=O)NCCCC[C@@H](C(=O)N[C@@H](Cc2c[nH]cn2)C(=O)O)NC(=O)[C@H](CCCNC(=N)N)NC(=O)[C@H](Cc2cccc3ccccc23)NC(=O)[C@H]([C@@H](C)O)NC(=O)[C@H](CCCN)NC(=O)[C@H](CCCNC(=N)N)NC1=O (Ac-DTC(Acm)R[Orn]T[1Nal]RKH-OH; lactam 1-9)
- Kd [1]: 32 µM
- metabolised at 17 h [2]: 30%
- metabolised at 42 h [5]: 100%

SMILES: CC(=O)NCSC[C@@H]1NC(=O)[C@H]([C@@H](C)O)NC(=O)[C@@H](NC(C)=O)CC(=O)NCCCC[C@@H](C(=O)N[C@@H](Cc2c[nH]cn2)C(=O)O)NC(=O)[C@H](CCCCNC(=N)N)NC(=O)[C@H](Cc2cccc3ccccc23)NC(=O)[C@H]([C@@H](C)O)NC(=O)[C@H](CCCN)NC(=O)[C@H](CCCNC(=N)N)NC1=O (Ac-DTC(Acm)R[Orn]T[1Nal][hArg]KH-OH; lactam 1-9)
- Kd [1]: 39 µM
- Stability [3]: Stable

SMILES: CC(=O)NCSC[C@@H]1NC(=O)C2(CCCC2)NC(=O)[C@@H](NC(C)=O)CC(=O)NCCCC[C@@H](C(=O)N[C@@H](Cc2c[nH]cn2)C(=O)O)NC(=O)[C@H](CCCNC(=N)N)NC(=O)[C@H](Cc2cccc3ccccc23)NC(=O)[C@H]([C@@H](C)O)NC(=O)[C@H](CCC(N)=O)NC(=O)[C@H](CCCNC(=N)N)NC1=O (Ac-D[Ac5c]C(Acm)RQT[1Nal]RKH-OH; lactam 1-9)
- Kd [1]: 260 µM
- Stability [4]: Stable

SMILES: CC(=O)NCSC[C@@H]1NC(=O)[C@H]([C@@H](C)O)NC(=O)[C@@H](NC(C)=O)CCC(=O)NCCCC[C@@H](C(=O)N[C@@H](Cc2c[nH]cn2)C(=O)O)NC(=O)[C@H](CCCNC(=N)N)NC(=O)[C@H](Cc2cccc3ccccc23)NC(=O)[C@H]([C@@H](C)O)NC(=O)[C@H](CCC(N)=O)NC(=O)[C@H](CCCNC(=N)N)NC1=O (Ac-ETC(Acm)RQT[1Nal]RKH-OH; lactam 1-9)
- Kd [1]: 52 µM
- Stability [3]: Stable

SMILES: CC(=O)NCSC[C@@H]1NC(=O)[C@H]([C@@H](C)O)NC(=O)[C@@H](NC(C)=O)CCC(=O)NC[C@@H](C(=O)N[C@@H](Cc2c[nH]cn2)C(=O)O)NC(=O)[C@H](CCCNC(=N)N)NC(=O)[C@H](Cc2cccc3ccccc23)NC(=O)[C@H]([C@@H](C)O)NC(=O)[C@H](CCC(N)=O)NC(=O)[C@H](CCCNC(=N)N)NC1=O (Ac-ETC(Acm)RQT[1Nal]R[Dap]H-OH; lactam 1-9)
- Kd [1]: 71 µM
- Stability [3]: Stable

SMILES: CC(=O)NCSC[C@@H]1NC(=O)[C@H]([C@@H](C)O)NC(=O)[C@@H](NC(C)=O)CCC(=O)NCCC[C@@H](C(=O)N[C@@H](Cc2c[nH]cn2)C(=O)O)NC(=O)[C@H](CCCNC(=N)N)NC(=O)[C@H](Cc2cccc3ccccc23)NC(=O)[C@H]([C@@H](C)O)NC(=O)[C@H](CCC(N)=O)NC(=O)[C@H](CCCNC(=N)N)NC1=O (Ac-ETC(Acm)RQT[1Nal]R[Orn]H-OH; lactam 1-9)
- Activity [1]: inactive
- Stability [3]: Unstable

SMILES: CC(=O)NCSC[C@@H]1NC(=O)[C@H]([C@@H](C)O)NC(=O)[C@@H](NC(C)=O)CCCCNC(=O)C[C@@H](C(=O)N[C@@H](Cc2c[nH]cn2)C(=O)O)NC(=O)[C@H](CCCNC(=N)N)NC(=O)[C@H](Cc2cccc3ccccc23)NC(=O)[C@H]([C@@H](C)O)NC(=O)[C@H](CCC(N)=O)NC(=O)[C@H](CCCNC(=N)N)NC1=O (Ac-KTC(Acm)RQT[1Nal]RDH-OH; lactam 1-9)
- Kd [1]: 160 µM
- metabolised at 17 h [6]: 100%
